A value given as a limit tells only on which side of the number the result lay.

The values below come from US9896441B2 (Lycera Corporation, priority 2014, dated 2018).

Assay [1] addresses T1, RORγ-LBD (Homo sapiens, UniProt P51449).
T1 construct: made in house; host or cells: SF9 cells (baculovirus); used as diluted lysate
T1 sequence (P51449 269-508 limits assumed): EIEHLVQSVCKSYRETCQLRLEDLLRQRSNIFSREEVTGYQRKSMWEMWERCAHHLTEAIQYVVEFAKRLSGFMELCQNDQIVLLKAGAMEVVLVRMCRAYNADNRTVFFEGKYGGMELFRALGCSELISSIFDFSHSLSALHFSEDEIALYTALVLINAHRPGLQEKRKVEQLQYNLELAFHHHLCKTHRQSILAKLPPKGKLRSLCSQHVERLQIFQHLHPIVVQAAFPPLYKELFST
The assay is described as follows: RORγ-Ligand Binding Domain (LBD) TR-FRET Assay.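 As to TR-FRET Assay Max Response: 665/615 nm signal ratio set to 100 without ursolic acid or test compound.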 In kind it is biochemical. As to conditions: for TR-FRET Assay Max Response: maximum response. An outline of the steps:
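His-tagged RORγ-LBD from SF9 baculovirus lysate, ~3 nM final, in 50 mM Tris pH 7.0, 50 mM KCl, 1 mM EDTA, 0.1 mM DTT, 0.01% BSA. Biotinylated SRC1 LXXLL peptide at 200 nM final with 2 μM ursolic acid; TR-FRET read-out, 1% DMSO final.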

Assay [2] deals with T2, Gal4-RORγ-LBD (Homo sapiens, UniProt P51449).
T2 construct: expressed in transfected cells
T2 sequence (P51449 269-508 limits assumed): T1 sequence (P51449 269-508 limits assumed)
The experiment in a line: Gal4-RORγ Luciferase Reporter Assay in HEK-293T Cells. It counts as cell-based. As to conditions: HEK-293 cells; for Gal4-RORγ Assay Max Response: maximum response. In a few lines:
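HEK-293 cells were co-transfected with Gal4-RORγ-LBD and a Gal4-luciferase reporter, then exposed overnight at 37 °C to compounds with […] ursolic acid present (0.2% DMSO). Luminescence was read with One-Glo after 10 min at RT, untreated signal was set as 100, and Max Response was taken as the upper plateau of a 4-parameter logistic fit.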

The mark [3] stands for this setting: luciferase reporter, in presence of ursolic acid.
[4] abbreviates: with 2 μM ursolic acid (RORγ antagonist), highest test concentration 10 μM.
Setting [5] is: ursolic acid present, luciferase readout.
Setting [6] is: luciferase reporter, with ursolic acid.

On to `C/C(=C\c1ccc2c(c1)N(S(=O)(=O)c1cccc(C(F)(F)F)c1)CCC2=O)c1c(F)cccc1Cl` [Example 188, (E)-7-(2-(2-chloro-6-fluorophenyl)prop-1-en-1-yl)-1-((3-(trifluoromethyl)phenyl)sulfonyl)-2,3-dihydroquinolin-4(1H)-one], for which, in assay [1] (RORγ-LBD TR-FRET assay), the EC50 was less than 500 nM and the “TR-FRET Assay Max Response” value is recorded as “**** (a value greater than 200)”. Also, in assay [2] (setting [3]), the EC50 fell in the range of 500 to 5000 nM and the “Gal4-RORγ Assay Max Response” value is “** (a value in the range of greater than 90 to 150)”.

`COC(=O)CCC[C@H]1CN(S(=O)(=O)c2cc(C(F)(F)F)cnc2OCCO)c2cc(/C=C/c3c(F)cccc3Cl)ccc2O1` [Example 195C, methyl (S,E)-4-(6-(2-chloro-6-fluorostyryl)-4-((2-(2-hydroxyethoxy)-5-(trifluoro-methyl)pyridin-3-yl)sulfonyl)-3,4-dihydro-2H-benzo[b][1,4]-oxazin-2-yl)butanoate]: the EC50 in assay [1] (setting [4]) is less than 500 nM; in assay [2] (setting [5]), 500 to 5000 nM.

For `CCC(=Cc1ccc2c(c1)N(S(=O)(=O)c1cc(C(F)(F)F)cnc1OCCO)C[C@H](CCC(=O)O)O2)CC` [Example 95F, (S)-3-(6-(2-ethylbut-1-en-1-yl)-4-((2-(2-hydroxyethoxy)-5-(trifluoromethyl)pyridin-3-yl)sulfonyl)-3,4-dihydro-2H-benzo[b][1,4]oxazin-2-yl)propanoic acid], the values for the EC50 in assay [1] (RORγ-LBD TR-FRET) and in assay [2] (setting [6]) were less than 500 nM and 500 to 5000 nM, respectively.

Take `CCOc1nn(CC)cc1S(=O)(=O)N1C[C@H](CCC(=O)OC)Oc2ccc(/C=C/c3cccnc3)cc21` [Example 89J, (S,E)-methyl 3-(4-((3-ethoxy-1-ethyl-1H-pyrazol-4-yl)sulfonyl)-6-(2-(pyridin-3-yl)vinyl)-3,4-dihydro-2H-benzo[b][1,4]oxazin-2-yl)propanoate]: the EC50 in assay [1] (RORγ-LBD TR-FRET) is 500 to 5000 nM; in assay [2] (setting [6]), greater than 10000 nM.

In the case of `O=S(=O)(c1cccc(C(F)(F)F)c1)N1C[C@H](O)Cc2ccc(/C=C/c3c(F)cccc3Cl)cc21` [Example 163, (R,E)-7-(2-Chloro-6-fluorostyryl)-1-((3-(trifluoromethyl)phenyl)sulfonyl)-1,2,3,4-tetrahydroquinolin-3-ol], in assay [1] (RORγ-LBD TR-FRET assay), the EC50 was less than 500 nM and the “TR-FRET Assay Max Response” value is given as “** (a value in the range of greater than 90 to 150)”. In addition, in assay [2] (setting [3]), the EC50 is less than 500 nM and the “Gal4-RORγ Assay Max Response” value was “** (a value in the range of greater than 90 to 150)”.

Consider `O=C(O)CC[C@H]1CN(S(=O)(=O)c2cccc(C(F)(F)F)c2)c2cc(/C=C/c3cccc(F)c3Cl)ccc2O1` [Example 89BP, (S,E)-3-(6-(2-chloro-3-fluorostyryl)-4-((3-(trifluoromethyl)phenyl)sulfonyl)-3,4-dihydro-2H-benzo[b][1,4]oxazin-2-yl)propanoic acid], for which the EC50 was less than 500 nM in assay [1] (RORγ-LBD TR-FRET) and greater than 10000 nM in assay [2] (setting [6]).

As to `C/C(=C\c1ccc2c(c1)N(S(=O)(=O)c1cccc(C(F)(F)F)c1)C[C@H](CCC(=O)NCC(=O)O)O2)c1c(F)cccc1Cl` [Example 129E, (S,E)-(3-(6-(2-(2-chloro-6-fluorophenyl)prop-1-en-1-yl)-4-((3-(trifluoro-methyl)phenyl)sulfonyl)-3,4-dihydro-2H-benzo[b][1,4]oxazin-2-yl)propanoyl)glycine], in assay [1] (RORγ-LBD TR-FRET assay), the EC50 was less than 500 nM and the “TR-FRET Assay Max Response” value was “**** (a value greater than 200)”. Also, in assay [2] (setting [3]), the EC50 lay within 500 to 5000 nM and the “Gal4-RORγ Assay Max Response” value is “** (a value in the range of greater than 90 to 150)”.

In the case of `COC(=O)CC[C@H]1CN(S(=O)(=O)c2cccc(C(F)(F)F)c2)c2cc(/C=C(\C)c3ccccc3Cl)ccc2O1` [Example 86Z, (S,E)-methyl 3-(6-(2-(2-chlorophenyl)prop-1-en-1-yl)-4-((3-(trifluoromethyl)phenyl)-sulfonyl)-3,4-dihydro-2H-benzo[b][1,4]oxazin-2-yl)propanoate], the EC50 in assay [1] (RORγ-LBD TR-FRET) and in assay [2] (setting [6]) was less than 500 nM each time.

With `C[C@H]1CN(S(=O)(=O)c2cc(C(F)(F)F)cnc2OCCO)c2cc(/C=C/c3c(Cl)cccc3C(F)(F)F)ccc2O1` [Example 89EX, (S,E)-2-((3-((6-(2-chloro-6-(trifluoromethyl)styryl)-2-methyl-2,3-dihydro-4H-benzo[b][1,4]oxazin-4-yl)sulfonyl)-5-(trifluoromethyl)-pyridin-2-yl)oxy)ethan-1-ol], the EC50 was less than 500 nM in assay [1] (RORγ-LBD TR-FRET) and 500 to 5000 nM in assay [2] (setting [6]).

Take `O=C(O)CC[C@H]1CN(S(=O)(=O)c2cc(C(F)(F)F)cnc2OCCO)c2cc(CC3CCCCC3)ccc2O1` [Example 95D, (S)-3-(6-(cyclohexylmethyl)-4-((2-(2-hydroxyethoxy)-5-(trifluoromethyl)pyridin-3-yl)sulfonyl)-3,4-dihydro-2H-benzo[b][1,4]oxazin-2-yl)propanoic acid]: the EC50 is less than 500 nM in assay [1] (RORγ-LBD TR-FRET) and 500 to 5000 nM in assay [2] (setting [6]).

Take `C/C(=C\c1ccc2c(c1)N(S(=O)(=O)c1c(Cl)nc3sccn13)C[C@H](CCC(=O)O)O2)c1c(F)cccc1Cl` [Example 86U, (S,E)-3-(6-(2-(2-chloro-6-fluorophenyl)prop-1-en-1-yl)-4-((6-chloroimidazo[2,1-b]thiazol-5-yl)sulfonyl)-3,4-dihydro-2H-benzo[b][1,4]oxazin-2-yl)propanoic acid]: the EC50 was less than 500 nM in assay [1] (RORγ-LBD TR-FRET) and 500 to 5000 nM in assay [2] (setting [6]).

As for `O=C(O)CC[C@H]1CN(S(=O)(=O)c2cccc(OC(F)F)c2)c2cc(/C=C/c3c(F)cccc3Cl)ccc2O1` [Example 89A, (S,E)-3-(6-(2-chloro-6-fluorostyryl)-4-((3-(difluoromethoxy)phenyl)sulfonyl)-3,4-dihydro-2H-benzo[b][1,4]oxazin-2-yl)propanoic acid], the EC50 in assay [1] (RORγ-LBD TR-FRET) is less than 500 nM; in assay [2] (setting [6]), 500 to 5000 nM.

As for `COC(=O)CC[C@H]1CN(S(=O)(=O)c2cccc(OC(F)F)c2)c2cc(/C=C/c3c(Cl)cccc3Cl)ccc2O1` [Example 89CS, methyl (S,E)-3-(6-(2,6-dichlorostyryl)-4-((3-(difluoromethoxy)phenyl)sulfonyl)-3,4-dihydro-2H-benzo[b][1,4]-oxazin-2-yl)propanoate], the EC50 in assay [1] (RORγ-LBD TR-FRET) and in assay [2] (setting [6]) was less than 500 nM in each case.

Consider `CCOc1nn(CC)cc1S(=O)(=O)N1C[C@H](CCC(=O)O)Oc2ccc(/C=C/c3cccc(OC)n3)cc21` [Example 89S, (S,E)-3-(4-((3-ethoxy-1-ethyl-1H-pyrazol-4-yl)sulfonyl)-6-(2-(6-methoxypyridin-2-yl)vinyl)-3,4-dihydro-2H-benzo[b][1,4]-oxazin-2-yl)propanoic acid], for which the EC50 in assay [1] (RORγ-LBD TR-FRET) was 500 to 5000 nM; in assay [2] (setting [6]) it was greater than 10000 nM.

For the compound `CCn1cc(S(=O)(=O)N2C[C@H](CCC(=O)OC)Oc3ccc(/C=C(\C)c4c(F)cccc4Cl)cc32)c(Cl)n1` [Example 86H, (S,E)-methyl 3-(4-((3-chloro-1-ethyl-1H-pyrazol-4-yl)sulfonyl)-6-(2-(2-chloro-6-fluorophenyl)prop-1-en-1-yl)-3,4-dihydro-2H-benzo[b][1,4]oxazin-2-yl)propanoate], the EC50 in assay [1] (RORγ-LBD TR-FRET) is less than 500 nM; in assay [2] (setting [6]), 500 to 5000 nM.

`CCOc1ncc(C(F)(F)F)cc1S(=O)(=O)N1C[C@H](CCC(=O)O)Oc2ccc(/C=C/c3c(Cl)cccc3C(F)F)cc21` [Example 89EJ, (S,E)-3-(6-(2-chloro-6-(difluoromethyl)styryl)-4-((2-ethoxy-5-(trifluoromethyl)-pyridin-3-yl)sulfonyl)-3,4-dihydro-2H-benzo[b][1,4]-oxazin-2-yl)propanoic acid]: the EC50 in assay [1] (RORγ-LBD TR-FRET) and in assay [2] (setting [6]) was less than 500 nM each time.

As to `COC(=O)CC[C@H]1CN(S(=O)(=O)c2cccc(OC(F)F)c2)c2cc(/C=C(\C)c3c(F)cccc3Cl)c(C)cc2O1` [Example 53, (S,E)-Methyl 3-(6-(2-(2-chloro-6-fluorophenyl)prop-1-en-1-yl)-4-((3-(difluoromethoxy)phenyl)sulfonyl)-7-methyl-3,4-dihydro-2H-benzo[b][1,4]oxazin-2-yl)propanoate], the figures for the EC50 in assay [1] (RORγ-LBD TR-FRET) and in assay [2] (setting [6]) were less than 500 nM and 500 to 5000 nM, respectively.

`CCOC(=O)C1Cc2ccc(CCc3c(F)cccc3Cl)cc2N(S(=O)(=O)c2cccc(C(F)(F)F)c2)C1` (stereo not shown): the EC50 in assay [1] (setting [4]) and in assay [2] (setting [5]) was less than 500 nM in each case.

For `CCOc1nn(CC)cc1S(=O)(=O)N1C[C@H](CCC(=O)OC)Oc2ccc(/C=C/c3nccs3)cc21` [Example 89R, (S,E)-methyl 3-(4-((3-ethoxy-1-ethyl-1H-pyrazol-4-yl)sulfonyl)-6-(2-(thiazol-2-yl)vinyl)-3,4-dihydro-2H-benzo[b][1,4]oxazin-2-yl)propanoate], the EC50 is 5000 to 10000 nM in assay [1] (RORγ-LBD TR-FRET) and greater than 10000 nM in assay [2] (setting [6]).

As for `COC(=O)CC[C@H]1CN(S(=O)(=O)c2cccc(C(F)(F)F)c2C)c2cc(/C=C(\C)c3c(F)cccc3Cl)ccc2O1` [Example 86AN, (S,E)-methyl 3-(6-(2-(2-chloro-6-fluorophenyl)prop-1-en-1-yl)-4-((2-methyl-3-(trifluoromethyl)-phenyl)sulfonyl)-3,4-dihydro-2H-benzo[b][1,4]oxazin-2-yl)propanoate], the EC50 in assay [1] (RORγ-LBD TR-FRET) is less than 500 nM; in assay [2] (setting [6]), 500 to 5000 nM.
